Experimental data as given in paper PMC11887051, “Discovery of ONO-2920632 (VU6011887): A Highly Selective and CNS Penetrant TREK-2 (TWIK-Related K+ Channel 2) Preferring Activator In Vivo Tool Compound” (ACS Chemical Neuroscience, 2025).

How the values were obtained:
TREK-1 = biological target: T1, TREK-1 (Homo sapiens, UniProt O95069); test: human TREK-1 MPC assay; assay type: cell-based; set-up: host or cells: CHO
T1 sequence (O95069 1-426): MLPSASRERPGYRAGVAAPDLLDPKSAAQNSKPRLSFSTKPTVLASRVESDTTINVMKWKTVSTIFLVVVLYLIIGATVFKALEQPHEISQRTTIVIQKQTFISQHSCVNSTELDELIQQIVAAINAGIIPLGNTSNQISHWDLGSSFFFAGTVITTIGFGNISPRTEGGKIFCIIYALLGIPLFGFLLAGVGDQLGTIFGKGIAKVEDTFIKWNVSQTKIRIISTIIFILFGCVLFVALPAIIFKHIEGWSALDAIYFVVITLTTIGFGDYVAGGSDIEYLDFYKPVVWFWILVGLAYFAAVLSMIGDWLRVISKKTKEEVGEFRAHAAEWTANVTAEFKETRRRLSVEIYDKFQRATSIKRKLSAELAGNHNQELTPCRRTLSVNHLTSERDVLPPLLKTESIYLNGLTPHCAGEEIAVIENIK

[1] = mouse brain homogenate binding; assay type: in vitro ADME; details: read-out: mouse brain fu
TREK-2 = biological target: T2, TREK-2 (Homo sapiens, UniProt P57789); test: human 86Rb flux K2P selectivity panel; assay type: cell-based
T2 sequence (P57789 1-538): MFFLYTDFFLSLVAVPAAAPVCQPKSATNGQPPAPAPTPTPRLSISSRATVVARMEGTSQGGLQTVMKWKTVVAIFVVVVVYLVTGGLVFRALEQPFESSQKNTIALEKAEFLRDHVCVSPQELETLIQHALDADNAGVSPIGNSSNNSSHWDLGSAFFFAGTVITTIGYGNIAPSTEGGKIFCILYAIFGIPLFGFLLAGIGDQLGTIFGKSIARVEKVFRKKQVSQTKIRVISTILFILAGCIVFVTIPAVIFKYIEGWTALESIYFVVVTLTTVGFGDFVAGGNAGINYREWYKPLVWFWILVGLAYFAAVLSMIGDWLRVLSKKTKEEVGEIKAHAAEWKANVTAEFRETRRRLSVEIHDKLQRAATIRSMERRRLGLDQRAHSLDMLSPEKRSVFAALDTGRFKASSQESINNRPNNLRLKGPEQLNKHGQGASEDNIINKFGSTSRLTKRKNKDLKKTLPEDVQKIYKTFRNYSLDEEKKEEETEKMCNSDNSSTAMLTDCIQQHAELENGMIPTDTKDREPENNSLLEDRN

Adrenergic α1A = Adrenergic α1A (Rattus norvegicus, UniProt P43140); test: Eurofins Lead Profiling radioligand binding; details: title: 30 μM
Adrenergic α2A = Adrenergic α2A (Homo sapiens, UniProt P08913); test: Eurofins Lead Profiling radioligand binding; details: title: 30 μM
Adrenergic β1 = Adrenergic β1 (Homo sapiens, UniProt P08588); test: Eurofins Lead Profiling radioligand binding; details: title: 30 μM
Androgen (Testosterone) = Androgen (Testosterone) (Homo sapiens, UniProt P10275); test: Eurofins Lead Profiling radioligand binding; details: title: 30 μM
[2] = test system: Calcium Channel L-Type, Dihydropyridine; test: Eurofins Lead Profiling radioligand binding; set-up: species or system Rat; details: title: 30 μM
Cannabinoid CB1 = Cannabinoid CB1 (Homo sapiens, UniProt P21554); test: Eurofins Lead Profiling radioligand binding; details: title: 30 μM
Dopamine D1 = Dopamine D1 (Homo sapiens, UniProt P21728); test: Eurofins Lead Profiling radioligand binding; details: title: 30 μM
Dopamine D2S = Dopamine D2S (Homo sapiens, UniProt P14416); test: Eurofins Lead Profiling radioligand binding; details: title: 30 μM
Glucocorticoid = Glucocorticoid (Homo sapiens, UniProt P04150); test: Eurofins Lead Profiling radioligand binding; details: title: 30 μM
Glutamate, NMDA, Agonism = test: Eurofins Lead Profiling radioligand binding; set-up: species or system Rat; details: title: 30 μM
Glutamate, NMDA, Glycine = Glutamate, NMDA, Glycine (Rattus norvegicus, UniProt P35439); test: Eurofins Lead Profiling radioligand binding; details: title: 30 μM
[3] = test system: Glycine, Strychnine-Sensitive; test: Eurofins Lead Profiling radioligand binding; set-up: species or system Rat; details: title: 30 μM
Histamine H3 = Histamine H3 (Homo sapiens, UniProt Q9Y5N1); test: Eurofins Lead Profiling radioligand binding; details: title: 30 μM
Interleukin IL-1 R1 = Interleukin IL-1 R1 (Mus musculus, UniProt P13504); test: Eurofins Lead Profiling radioligand binding; details: title: 30 μM
Melatonin MT1 = Melatonin MT1 (Homo sapiens, UniProt P48039); test: Eurofins Lead Profiling radioligand binding; details: title: 30 μM
Neuropeptide Y Y2 = Neuropeptide Y Y2 (Homo sapiens, UniProt P49146); test: Eurofins Lead Profiling radioligand binding; details: title: 30 μM
[4] = biological target: Nicotinic Acetylcholine α1, Bungarotoxin (Homo sapiens, UniProt P02708+P07510+Q07001); test: Eurofins Lead Profiling radioligand binding; details: read-out: % Inhibition at 10 µM
Phorbol Ester = test: Eurofins Lead Profiling radioligand binding; set-up: species or system Mouse; details: title: 30 μM
Potassium Channel [KATP] = test: Eurofins Lead Profiling radioligand binding; set-up: species or system Hamster; details: title: 30 μM
Potassium Channel [SKCA] = test: Eurofins Lead Profiling radioligand binding; set-up: species or system Rat; details: title: 30 μM
hERG potassium channel = hERG potassium channel (Homo sapiens, UniProt Q12809); test: Eurofins Lead Profiling radioligand binding; details: title: 30 μM
[5] = test system: Purinergic P2Y, Non-Selective; test: Eurofins Lead Profiling radioligand binding; set-up: species or system Rat; details: title: 30 μM
Serotonin (5-HT1A) = Serotonin (5-HT1A) (Homo sapiens, UniProt P08908); test: Eurofins Lead Profiling radioligand binding; details: title: 30 μM
Thyroid Hormone = test: Eurofins Lead Profiling radioligand binding; set-up: species or system Rat; details: title: 30 μM
Transporter, GABA = Transporter, GABA (Rattus norvegicus, UniProt P23978); test: Eurofins Lead Profiling radioligand binding; details: title: 30 μM
[6] = biological target: Transporter, Norepinephrine (NET) (Homo sapiens, UniProt P23975); test: Eurofins Lead Profiling radioligand binding; details: title: 30 μM
Vanilloid = Vanilloid (Rattus norvegicus, UniProt O35433); test: Eurofins Lead Profiling radioligand binding; details: title: 30 μM

Androgen (Testosterone), sequence (P10275 whole entry): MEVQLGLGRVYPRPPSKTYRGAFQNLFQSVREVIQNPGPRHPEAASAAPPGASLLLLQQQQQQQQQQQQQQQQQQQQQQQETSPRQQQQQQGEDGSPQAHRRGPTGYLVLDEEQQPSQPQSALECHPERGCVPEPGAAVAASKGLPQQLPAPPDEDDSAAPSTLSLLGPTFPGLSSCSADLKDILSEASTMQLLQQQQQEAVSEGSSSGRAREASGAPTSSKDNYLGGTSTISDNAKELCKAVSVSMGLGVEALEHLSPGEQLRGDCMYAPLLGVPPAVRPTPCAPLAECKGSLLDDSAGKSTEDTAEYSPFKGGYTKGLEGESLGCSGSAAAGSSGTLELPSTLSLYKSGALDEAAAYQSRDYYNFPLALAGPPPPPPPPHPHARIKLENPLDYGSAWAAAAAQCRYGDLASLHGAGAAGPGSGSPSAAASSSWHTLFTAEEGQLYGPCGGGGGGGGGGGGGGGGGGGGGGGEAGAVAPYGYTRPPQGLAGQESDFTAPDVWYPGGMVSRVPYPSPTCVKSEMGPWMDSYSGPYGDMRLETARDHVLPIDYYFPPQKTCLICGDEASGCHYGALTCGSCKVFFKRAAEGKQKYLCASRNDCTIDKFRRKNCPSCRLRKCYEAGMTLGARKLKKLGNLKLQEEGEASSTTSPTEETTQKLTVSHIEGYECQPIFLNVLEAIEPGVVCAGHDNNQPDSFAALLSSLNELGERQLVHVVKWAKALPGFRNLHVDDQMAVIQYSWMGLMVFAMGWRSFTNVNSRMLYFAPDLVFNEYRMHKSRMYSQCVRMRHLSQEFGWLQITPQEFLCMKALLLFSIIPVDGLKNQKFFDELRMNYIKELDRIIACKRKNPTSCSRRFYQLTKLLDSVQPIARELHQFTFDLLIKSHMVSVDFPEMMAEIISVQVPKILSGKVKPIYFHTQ
Adrenergic α1A, sequence (P43140 whole entry): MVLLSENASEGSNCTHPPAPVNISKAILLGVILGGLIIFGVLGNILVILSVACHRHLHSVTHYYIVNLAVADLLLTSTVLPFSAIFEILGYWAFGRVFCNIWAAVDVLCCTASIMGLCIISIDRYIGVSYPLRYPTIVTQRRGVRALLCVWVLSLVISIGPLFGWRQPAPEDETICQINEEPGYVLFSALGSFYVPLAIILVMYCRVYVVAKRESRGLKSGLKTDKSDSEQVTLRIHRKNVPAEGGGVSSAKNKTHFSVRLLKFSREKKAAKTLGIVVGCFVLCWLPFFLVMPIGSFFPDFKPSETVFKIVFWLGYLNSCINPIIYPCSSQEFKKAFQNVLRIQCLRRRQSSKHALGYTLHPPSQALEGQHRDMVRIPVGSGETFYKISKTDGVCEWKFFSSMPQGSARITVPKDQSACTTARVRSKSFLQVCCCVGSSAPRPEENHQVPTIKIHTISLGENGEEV
hERG potassium channel, sequence (Q12809 whole entry): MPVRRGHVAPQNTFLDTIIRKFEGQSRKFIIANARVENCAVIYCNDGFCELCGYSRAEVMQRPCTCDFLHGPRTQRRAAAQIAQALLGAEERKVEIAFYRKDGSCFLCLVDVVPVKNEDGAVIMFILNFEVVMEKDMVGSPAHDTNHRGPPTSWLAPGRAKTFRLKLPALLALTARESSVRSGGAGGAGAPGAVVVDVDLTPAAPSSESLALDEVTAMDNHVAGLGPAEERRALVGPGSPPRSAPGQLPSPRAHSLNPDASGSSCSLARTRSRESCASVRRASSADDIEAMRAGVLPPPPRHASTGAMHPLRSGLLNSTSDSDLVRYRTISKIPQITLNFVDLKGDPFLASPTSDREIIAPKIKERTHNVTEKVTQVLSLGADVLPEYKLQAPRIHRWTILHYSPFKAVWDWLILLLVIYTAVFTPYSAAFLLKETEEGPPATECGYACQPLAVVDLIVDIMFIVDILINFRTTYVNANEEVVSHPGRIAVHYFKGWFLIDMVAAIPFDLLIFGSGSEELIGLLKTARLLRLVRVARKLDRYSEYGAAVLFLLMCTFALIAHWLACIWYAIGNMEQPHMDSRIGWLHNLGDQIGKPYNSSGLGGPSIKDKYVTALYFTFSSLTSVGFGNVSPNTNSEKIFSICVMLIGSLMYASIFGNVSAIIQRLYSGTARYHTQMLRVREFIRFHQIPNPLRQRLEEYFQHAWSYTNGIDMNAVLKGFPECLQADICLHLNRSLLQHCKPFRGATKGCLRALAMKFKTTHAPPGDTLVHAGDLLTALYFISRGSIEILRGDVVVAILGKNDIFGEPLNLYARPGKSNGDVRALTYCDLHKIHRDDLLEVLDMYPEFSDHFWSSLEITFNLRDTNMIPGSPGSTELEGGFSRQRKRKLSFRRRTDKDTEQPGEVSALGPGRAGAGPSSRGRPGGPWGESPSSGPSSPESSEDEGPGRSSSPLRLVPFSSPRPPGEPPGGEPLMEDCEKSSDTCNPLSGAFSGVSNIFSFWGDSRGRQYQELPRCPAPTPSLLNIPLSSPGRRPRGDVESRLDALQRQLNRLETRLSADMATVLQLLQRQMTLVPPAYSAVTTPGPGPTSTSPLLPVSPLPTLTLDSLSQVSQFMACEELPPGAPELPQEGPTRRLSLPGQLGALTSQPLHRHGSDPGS
Nicotinic Acetylcholine α1, Bungarotoxin, sequence (Q07001 22-517): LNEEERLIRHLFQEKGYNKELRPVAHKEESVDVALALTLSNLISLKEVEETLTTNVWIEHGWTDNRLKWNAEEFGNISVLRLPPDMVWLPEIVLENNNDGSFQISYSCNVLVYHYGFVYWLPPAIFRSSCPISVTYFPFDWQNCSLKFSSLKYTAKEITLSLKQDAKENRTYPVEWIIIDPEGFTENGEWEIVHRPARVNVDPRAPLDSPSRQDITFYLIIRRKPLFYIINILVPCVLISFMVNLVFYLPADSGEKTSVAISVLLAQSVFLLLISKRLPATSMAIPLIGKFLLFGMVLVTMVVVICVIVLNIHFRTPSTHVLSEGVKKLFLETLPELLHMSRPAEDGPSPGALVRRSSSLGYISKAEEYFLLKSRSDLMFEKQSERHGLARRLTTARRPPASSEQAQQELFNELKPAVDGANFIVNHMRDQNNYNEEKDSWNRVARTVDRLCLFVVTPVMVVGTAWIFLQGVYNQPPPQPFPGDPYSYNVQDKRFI
Nicotinic Acetylcholine α1, Bungarotoxin, sequence (P07510 23-517): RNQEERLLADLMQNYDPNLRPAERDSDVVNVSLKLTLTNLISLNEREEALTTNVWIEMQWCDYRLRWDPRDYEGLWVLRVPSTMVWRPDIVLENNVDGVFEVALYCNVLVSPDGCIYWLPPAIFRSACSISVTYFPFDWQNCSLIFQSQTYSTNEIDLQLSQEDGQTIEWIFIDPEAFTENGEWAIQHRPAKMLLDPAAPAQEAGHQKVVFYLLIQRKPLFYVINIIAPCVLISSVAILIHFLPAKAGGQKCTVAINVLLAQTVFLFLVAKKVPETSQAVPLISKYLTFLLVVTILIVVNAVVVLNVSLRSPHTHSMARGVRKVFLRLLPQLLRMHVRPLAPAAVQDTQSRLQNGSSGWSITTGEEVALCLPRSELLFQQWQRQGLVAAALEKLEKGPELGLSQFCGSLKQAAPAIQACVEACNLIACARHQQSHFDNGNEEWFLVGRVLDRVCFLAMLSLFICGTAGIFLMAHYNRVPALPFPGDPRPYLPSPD
Nicotinic Acetylcholine α1, Bungarotoxin, sequence (P11230 24-501, further chain): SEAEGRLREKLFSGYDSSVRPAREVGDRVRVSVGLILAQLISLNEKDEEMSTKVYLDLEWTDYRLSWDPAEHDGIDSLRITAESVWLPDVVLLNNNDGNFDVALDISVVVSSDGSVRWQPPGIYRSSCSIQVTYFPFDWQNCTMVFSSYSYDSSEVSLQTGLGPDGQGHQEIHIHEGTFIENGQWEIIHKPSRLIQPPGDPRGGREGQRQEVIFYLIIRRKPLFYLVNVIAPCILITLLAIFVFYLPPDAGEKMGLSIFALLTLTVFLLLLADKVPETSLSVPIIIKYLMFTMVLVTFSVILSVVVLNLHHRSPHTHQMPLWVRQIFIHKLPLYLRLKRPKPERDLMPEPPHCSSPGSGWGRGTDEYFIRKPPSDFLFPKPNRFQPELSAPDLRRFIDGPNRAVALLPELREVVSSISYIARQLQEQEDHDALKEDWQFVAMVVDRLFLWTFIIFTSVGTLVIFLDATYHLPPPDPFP
Nicotinic Acetylcholine α1, Bungarotoxin, sequence (P02708 21-457): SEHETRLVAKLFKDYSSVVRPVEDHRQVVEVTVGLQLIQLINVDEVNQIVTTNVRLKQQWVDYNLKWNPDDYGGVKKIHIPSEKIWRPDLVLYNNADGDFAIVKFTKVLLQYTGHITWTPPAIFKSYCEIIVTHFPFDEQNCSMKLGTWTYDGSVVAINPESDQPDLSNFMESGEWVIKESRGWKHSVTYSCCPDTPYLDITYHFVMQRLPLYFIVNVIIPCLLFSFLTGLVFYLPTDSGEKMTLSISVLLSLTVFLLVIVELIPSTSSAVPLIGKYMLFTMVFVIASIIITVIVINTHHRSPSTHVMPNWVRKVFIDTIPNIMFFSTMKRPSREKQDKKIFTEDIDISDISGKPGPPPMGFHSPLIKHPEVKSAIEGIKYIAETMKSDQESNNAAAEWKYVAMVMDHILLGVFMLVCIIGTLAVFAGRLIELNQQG
Glutamate, NMDA, Glycine, sequence (P35439 394-800 limits assumed): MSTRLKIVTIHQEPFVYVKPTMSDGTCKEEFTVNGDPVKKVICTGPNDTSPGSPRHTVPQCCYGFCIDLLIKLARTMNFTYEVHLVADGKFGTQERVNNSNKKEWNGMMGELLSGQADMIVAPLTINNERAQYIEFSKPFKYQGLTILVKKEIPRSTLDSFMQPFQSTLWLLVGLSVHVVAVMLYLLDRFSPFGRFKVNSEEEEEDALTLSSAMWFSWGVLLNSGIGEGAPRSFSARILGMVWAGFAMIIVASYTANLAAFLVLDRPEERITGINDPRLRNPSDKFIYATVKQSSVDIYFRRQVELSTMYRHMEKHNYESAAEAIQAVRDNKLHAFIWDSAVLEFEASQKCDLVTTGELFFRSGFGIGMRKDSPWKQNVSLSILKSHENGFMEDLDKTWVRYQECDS

Work on `O=C(NCc1ccc(OC(F)(F)F)cc1Cl)c1ccc2nncn2c1` [Compound 20] yielded an EC50 (TREK-1) of 330 nM and an Emax (TREK-1) of 172%.

In the case of `O=C(NCc1ccc(OC(F)(F)F)cc1F)c1ccc2ncnn2c1` [Compound 19b], the fraction unbound at 6 h, 1 µM [1] is reported as 0.28, the “TREK-2 preference in 86Rb flux assay” value (TREK-2; TREK-2 over TREK-1) is reported as ~46 fold and the “activity at TREK-2 in 86Rb flux panel” value (TREK-2; data is not shown) is reported as “submicromolar activity”. It also gave an inhibition (Adrenergic α1A) of 2%, an inhibition (Adrenergic α2A) of 3% and an inhibition (Adrenergic β1) of 9%. For the same compound, the inhibition (Androgen (Testosterone)) was 18%, the “% Inhibition at 10 µM” value [2] was -2% and the inhibition (Cannabinoid CB1) was 17%. It also gave an inhibition (Dopamine D1) of 22%, an inhibition at 10 µM (Dopamine D2S) of 6% and an inhibition (Glucocorticoid) of 7%. For the same compound, the “% Inhibition at 10 µM” value (Glutamate, NMDA, Agonism) was -3%, the inhibition (Glutamate, NMDA, Glycine) was -1% and the “% Inhibition at 10 µM” value [3] was -16%. For the same compound, the inhibition (Histamine H3) was 1%, the inhibition (Interleukin IL-1 R1) was 9% and the inhibition (Melatonin MT1) was 17%. The inhibition (Neuropeptide Y Y2) was -1%, the inhibition at 10 µM [4] was 20% and the “% Inhibition at 10 µM” value (Phorbol Ester) was 0%. For the same compound, the “% Inhibition at 10 µM” value (Potassium Channel [KATP]) was 13%, the “% Inhibition at 10 µM” value (Potassium Channel [SKCA]) was 4% and the inhibition (hERG potassium channel) was 44%. The “% Inhibition at 10 µM” value [5] was -7%, the inhibition (Serotonin (5-HT1A)) was 2% and the “% Inhibition at 10 µM” value (Thyroid Hormone) was 9%. The inhibition (Transporter, GABA) was -6%, the inhibition [6] was 29% and the inhibition (Vanilloid) was -8%.
